Measurements published in publication PMC4915685 (PLoS ONE, 2016).

Legend:
[1] = biological target: T1, dog plasma DPP-4 activity (Canis lupus familiaris, UniProt A0A8I3Q2I8); assay: Inhibition of plasma DPP-4 activity, dog plasma (GP-pNA); assay type: biochemical
T1 construct: tissue Kitayama Labes Co., Ltd. (animals); host or cells: beagle dog plasma
Procedure: Male Sprague–Dawley rats (7 weeks old, n = 30) and male beagle dogs (2–5 years old, n = 3) were purchased from CLEA Japan (Tokyo, Japan) and Kitayama Labes Co., Ltd. (Nagano, Japan), respectively. […] Rat blood samples were taken from abdominal vein under ether inhalation anesthesia in anesthetized rats before euthanasia by exsanguination. Dog blood samples were collected from anterior limb veins in conscious dogs that were restrained in a retainer. […] Plasma samples were prepared and stored at -80°C before use.

[2] = biological target: T2, prolyl endopeptidase (PEP) (Rattus norvegicus, UniProt O70196); assay: PEP inhibition assay; assay type: biochemical
T2 construct: were prepared from rat kidney and brain, respectively; from tissue; host or cells: rat brain
T2 sequence (O70196 1-710): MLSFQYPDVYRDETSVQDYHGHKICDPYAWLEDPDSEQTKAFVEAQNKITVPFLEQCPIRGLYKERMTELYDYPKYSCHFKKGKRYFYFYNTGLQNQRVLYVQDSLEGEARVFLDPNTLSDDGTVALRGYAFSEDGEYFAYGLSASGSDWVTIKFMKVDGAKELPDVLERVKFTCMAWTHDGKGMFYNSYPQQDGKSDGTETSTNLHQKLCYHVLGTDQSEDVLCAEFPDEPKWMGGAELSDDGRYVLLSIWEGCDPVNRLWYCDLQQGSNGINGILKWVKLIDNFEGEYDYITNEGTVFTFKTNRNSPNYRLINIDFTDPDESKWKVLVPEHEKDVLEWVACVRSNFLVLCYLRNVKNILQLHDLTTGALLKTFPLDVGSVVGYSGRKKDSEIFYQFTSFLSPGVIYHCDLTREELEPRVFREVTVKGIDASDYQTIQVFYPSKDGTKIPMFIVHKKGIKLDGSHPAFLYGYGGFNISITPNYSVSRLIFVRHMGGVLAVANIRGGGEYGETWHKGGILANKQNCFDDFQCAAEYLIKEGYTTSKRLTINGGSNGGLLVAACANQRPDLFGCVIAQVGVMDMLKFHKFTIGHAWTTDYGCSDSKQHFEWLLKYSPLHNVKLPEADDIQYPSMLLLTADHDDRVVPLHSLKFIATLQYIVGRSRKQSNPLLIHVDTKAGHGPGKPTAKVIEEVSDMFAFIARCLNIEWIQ

[3] = tested on: human plasma protein; assay: Plasma protein binding; assay type: in vitro ADME; settings: over the range of 0.1 to 10 μg/mL (unpublished results)
[4] = set-up: method as in earlier work; settings: 100 mg single dose, 168 hours after administration, Japanese healthy volunteers; cited from earlier work
[5] = tested on: T2DM patients; settings: cited from earlier work

T1 sequence (A0A8I3Q2I8 1-765): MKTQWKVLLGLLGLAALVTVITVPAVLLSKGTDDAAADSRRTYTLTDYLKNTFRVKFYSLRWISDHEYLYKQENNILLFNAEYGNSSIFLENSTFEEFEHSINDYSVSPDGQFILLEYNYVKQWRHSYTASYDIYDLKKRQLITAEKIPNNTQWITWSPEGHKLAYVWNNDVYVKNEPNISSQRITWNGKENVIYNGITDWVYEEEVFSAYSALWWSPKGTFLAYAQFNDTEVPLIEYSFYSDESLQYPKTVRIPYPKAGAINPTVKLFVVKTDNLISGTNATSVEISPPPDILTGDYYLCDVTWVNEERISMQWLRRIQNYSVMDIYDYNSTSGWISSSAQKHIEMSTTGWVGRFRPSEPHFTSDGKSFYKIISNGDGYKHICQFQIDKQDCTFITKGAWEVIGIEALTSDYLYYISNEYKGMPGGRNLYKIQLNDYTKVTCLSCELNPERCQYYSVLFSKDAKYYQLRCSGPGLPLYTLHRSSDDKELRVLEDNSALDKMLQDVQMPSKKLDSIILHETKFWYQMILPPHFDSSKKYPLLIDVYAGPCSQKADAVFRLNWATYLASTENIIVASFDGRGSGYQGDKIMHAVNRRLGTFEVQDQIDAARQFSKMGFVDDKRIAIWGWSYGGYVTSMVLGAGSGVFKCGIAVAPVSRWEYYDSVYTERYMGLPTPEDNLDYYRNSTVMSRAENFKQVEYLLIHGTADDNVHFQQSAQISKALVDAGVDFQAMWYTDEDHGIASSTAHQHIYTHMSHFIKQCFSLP

Row | SMILES | IC50 [1] [nM] | IC50 [2] [nM] | binding to human plasma protein [3] | plasma trelagliptin concentration [mean (SD)] [4] | safety in clinical studies ([5]; clinical studies) | efficacy in terms of reduction of HbA1c versus alogliptin 25 mg daily dosing ([5]; trelagliptin 100 mg weekly dosing, T2DM patients)
1 | Cn1c(=O)cc(N2CCC[C@@H](N)C2)n(Cc2cc(F)ccc2C#N)c1=O [trelagliptin, 2-[6-(3(R)-aminopiperidin-1-yl)-3-methyl-2,4-dioxo-3,4-dihydro-2H-pyrimidin-1-ylmethyl]-4-fluorobenzonitrile] | 6.2 | > 100000 | 22.1–27.6% | 2.12 (0.679) ng/mL | no major safety concerns | non-inferior
2 | Cn1c(=O)cc(N2CCC[C@@H](N)C2)n(Cc2ccccc2C#N)c1=O [alogliptin, 2-[6-(3(R)-aminopiperidin-1-yl)-3-methyl-2,4-dioxo-3,4-dihydro-2H-pyrimidin-1-ylmethyl]benzonitrile, reference compound] | – | – | 28.2–32.3% | – | – | –
